Test results taken from patent US9657081B2, “Inhibiting peptides derived from triggering receptor expressed on myeloid cells-1 (TREM-1) TREM-like transcript 1 (TLT-1) for treatment of cardiovascular diseases” (INSERM (Institut National de la Sante et de la Recherche …, priority 2013, dated 2017).

Assays:
TREM-1 [1] = assay: Rat model of myocardial ischemia-reperfusion, cardiac function by conductance catheter; type: in vivo; parameters: PRSW: unit not given beside the values; Emax / ESPVR: unit not given here; conditions: six weeks after ischemia-reperfusion; 3 mg/kg once a day for 5 days
Procedure: Adult male Wistar rats were subjected to myocardial ischemia-reperfusion and were randomly grouped (n=10) to receive repeated TREM-1- and TLT-1-derived peptides (3 mg/kg in 0.2 mL NaCl 0.9% once a day for 5 days) or scrambled-LR12 (3 mg/kg in 0.2 mL NaCl 0.9% once a day for 5 days). Six weeks after myocardial injury, cardiac function was investigated under anaesthesia by using a conductance catheter. Emax, ESPVR, and PRSW were higher in animals treated with TREM-1- and TLT-1-derived peptides than in control rats. All p<0.02 [controls versus LR12]).
Animals received same surgery than in permanent ischemia, but with reperfusion of ischemic area by release of the LAD ligation after 60 minutes of ischemia. The same protocol as described above was then applied.
Rats were anaesthetized with isoflurane and a 2 F high-fidelity micro-manometer catheter (SPR-407, Millar Institute, Houston, Tex., USA) was inserted into the LV via the right carotid artery. The Millar catheter was connected to a Harvard Data Acquisition System interfaced with a PC with the AcqKnowledge III software (ACQ 3.2).
To investigate the role of TREM-1- and TLT-1-derived peptides in a more relevant model of MI, we performed a transient coronary artery ligation (ischemia-reperfusion model: IR) in rats. After randomisation, animals were then imaged under anaesthesia (micro-TEP) and administered with TREM-1- and TLT-1-derived peptides (3 mg/kg daily for 5 days i.p.) or LR12-scrambled peptide. Imaging was then repeated at 6 weeks before we studied cardiac function by using a conductance catheter (Millar).

TREM-1 [2] = assay: Rat model of myocardial permanent ischemia (myocardial infarction), physiologic parameters and micro-TEP imaging; type: in vivo
Procedure: Adult male Wistar rats (360-380 g) were used. All rats were anaesthetized with ketamine (100 mg/kg, intramuscularly) and mechanically ventilated. After a left thoracotomy, the left coronary artery was identified and ligated with a 6-0 prolene surgical suture. LAD occlusion was confirmed by a change in myocardial color from red to white in the ischemia area (Left ventricle). The chest was closed and the skin was sutured with 6-0 silk. The animals returned to their cage where they were supervised until their complete recovery. The postoperative mortality rate of all rats was 20%.
After surgical LAD occlusion, importance of ischemic area was evaluated by micro-TEP imaging. Animals were then randomized to receive peptide (5 mg/kg) every 24 h for 5 days or placebo (vehicle).
A further evaluation was performed at 6 weeks by micro-TEP imaging and conductance catheter (Millar) in order to study the treatment effect on myocardial remodeling and myocardial function.
In all animals, approximately 70 MBq of ^18F-FDG (in a 0.3-0.5 ml volume) was injected intravenously and under a short anaesthesia (1.5-2.5% of isoflurane inhalation) 60 min prior to initiating PET recording. Recording was acquired in list mode under continuous anaesthesia by isoflurane, using a dedicated small animal PET system (Inveon, Siemens, Knoxville, Tenn., USA). The animals were positioned in the prone position and placed on a heating pad to maintain a body temperature within the normal range. The animals were connected to a standard ECG monitor by three electrodes placed on the inner surfaces of limb extremities. Recording times were 20 min for 18F emission and 6 min for 57Co transmission. The coincidence timing window was set to 3.4 ns and the energy window between 350 and 650 keV. Images were reconstructed in 16 cardiac intervals, providing a temporal resolution of 11-15 ms for common heart rate values. Under these conditions, the axial spatial resolution was less than 1.5 mm. In addition, on LV rat phantoms obtained by a stereolithography process, a precise determination of the actual cavity volumes was provided by FDG PET images above the level of 100 μl corresponding to the lower limit for the LV endsystolic volume in adult.
We finally investigated whether the modulation of the inflammatory response conferred by TREM-1- and TLT-1-derived peptides was able to translate into cardiac function improvement after a severe MI. We performed a permanent coronary artery ligation in rats before randomisation and imaging as described above.

“LQEEDAGEYGCM (listed as Homo sapiens) [TLT1-LR12]” was tested, and the ESPVR (TREM-1 [1]) was 2.2 ± 0.1, the Emax (TREM-1 [1]) was 4.8 ± 0.5 and the PRSW (TREM-1 [1]) was 103 ± 5. For the same sequence, the Body weight (TREM-1 [2]; Baseline) was 313 ± 51 g, the EDV (TREM-1 [2]; Baseline) was 417 ± 92 µL and the EF (TREM-1 [2]; Baseline) was 48 ± 9%. The ESV (TREM-1 [2]; Baseline) was 215 ± 62 µL, the Heart rate (TREM-1 [2]; Baseline) was 400 ± 26 bpm and the “MI Areas” value (TREM-1 [2]; Baseline) was 22 ± 11 % of LV. For the same sequence, the “MT Areas” value (TREM-1 [2]; Baseline) was 54 ± 30 mm^2, the Systolic blood pressure (TREM-1 [2]; Baseline) was 136 ± 17 mmHg and the Body weight (TREM-1 [2]; Six weeks) was 426 ± 49 g. The “Body weight, difference with baseline” value (TREM-1 [2]; Six weeks) was 113 ± 51 g, the EDV (TREM-1 [2]; Six weeks) was 615 ± 161 µL and the “EDV, difference with baseline” value (TREM-1 [2]; Six weeks) was 198 ± 95 µL. For the same sequence, the EF (TREM-1 [2]; Six weeks) was 50 ± 8%, the “EF, difference with baseline” value (TREM-1 [2]; Six weeks) was 2 ± 7% and the ESV (TREM-1 [2]; Six weeks) was 313 ± 128 µL. For the same sequence, the “ESV, difference with baseline” value (TREM-1 [2]; Six weeks) was 99 ± 80 µL, the Heart rate (TREM-1 [2]; Six weeks) was 393 ± 23 bpm and the “Heart rate, difference with baseline” value (TREM-1 [2]; Six weeks) was −8 ± 22 bpm. For the same sequence, the “MI Areas (% of LV), difference with baseline” value (TREM-1 [2]; Six weeks) was −6.0 ± 8.1 % of LV, the “MI Areas (mm^2), difference with baseline” value (TREM-1 [2]; Six weeks) was −5 ± 23 mm^2 and the Systolic blood pressure (TREM-1 [2]; Six weeks) was 136 ± 17 mmHg. The “Systolic blood pressure, difference with baseline” value (TREM-1 [2]; Six weeks) was −12 ± 26 mmHg.
